In PubChem BioAssay (NCI):
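Five compound concentrations were applied to cells in 96-well plates for 48 hours; endpoints were derived by simple linear interpolation of the resulting dose-response curve. GI50 = concentration required for 50% inhibition of growth. Definition used: TGI = concentration required for complete inhibition of growth.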

Experiments:
Test in all cases: inhibition of tumour cell growth, NCI panel, 48 h
786-0 renal = system: 786-0 renal
A498 renal = system: A498 renal
A549 NSCLC = system: A549 NSCLC
ACHN renal = system: ACHN renal
BT-549 breast = system: BT-549 breast
CAKI-1 renal = system: CAKI-1 renal
CCRF-CEM leukemia = system: CCRF-CEM leukemia
COLO 205 colon = system: COLO 205 colon
DU-145 prostate = system: DU-145 prostate
EKVX NSCLC = system: EKVX NSCLC
HCC-2998 colon = system: HCC-2998 colon
HCT-116 colon = system: HCT-116 colon
HCT-15 colon = system: HCT-15 colon
HL-60(TB) leukemia = system: HL-60(TB) leukemia
HOP-62 NSCLC = system: HOP-62 NSCLC
HOP-92 NSCLC = system: HOP-92 NSCLC
HS 578T breast = system: HS 578T breast
HT29 colon = system: HT29 colon
IGROV1 ovarian = system: IGROV1 ovarian
K-562 leukemia = system: K-562 leukemia
KM12 colon = system: KM12 colon
LOX IMVI melanoma = system: LOX IMVI melanoma
M14 melanoma = system: M14 melanoma
MALME-3M melanoma = system: MALME-3M melanoma
MCF7 breast = system: MCF7 breast
MDA-MB-231 breast = system: MDA-MB-231 breast
MDA-MB-435 = system: MDA-MB-435
MOLT-4 leukemia = system: MOLT-4 leukemia
NCI-H226 lung = system: NCI-H226 lung
NCI-H23 lung = system: NCI-H23 lung
NCI-H460 lung = system: NCI-H460 lung
NCI-H522 lung = system: NCI-H522 lung
NCI/ADR-RES ovarian = system: NCI/ADR-RES ovarian
OVCAR-3 ovarian = system: OVCAR-3 ovarian
OVCAR-4 ovarian = system: OVCAR-4 ovarian
OVCAR-5 ovarian = system: OVCAR-5 ovarian
OVCAR-8 ovarian = system: OVCAR-8 ovarian
PC-3 prostate = system: PC-3 prostate
RPMI-8226 leukemia = system: RPMI-8226 leukemia
RXF 393 renal = system: RXF 393 renal
SF-268 CNS = system: SF-268 CNS
SF-295 CNS = system: SF-295 CNS
SF-539 CNS = system: SF-539 CNS
SK-MEL-2 melanoma = system: SK-MEL-2 melanoma
SK-MEL-28 melanoma = system: SK-MEL-28 melanoma
SK-MEL-5 melanoma = system: SK-MEL-5 melanoma
SK-OV-3 ovarian = system: SK-OV-3 ovarian
SN12C renal = system: SN12C renal
SNB-19 CNS = system: SNB-19 CNS
SNB-75 CNS = system: SNB-75 CNS
SR leukemia = system: SR leukemia
SW-620 colon = system: SW-620 colon
T-47D breast = system: T-47D breast
TK-10 renal = system: TK-10 renal
U251 CNS = system: U251 CNS
UACC-257 melanoma = system: UACC-257 melanoma
UACC-62 melanoma = system: UACC-62 melanoma
UO-31 renal = system: UO-31 renal

O=C(Nc1ncc(Cc2cccc(C(F)(F)F)c2)s1)c1ccc2c(c1)OCCO2
GI50 (786-0 renal): 576 nM
TGI (786-0 renal): > 100000 nM
GI50 (A498 renal): 48.4 nM
TGI (A498 renal): 442 nM
GI50 (A549 NSCLC): 451 nM
TGI (A549 NSCLC): > 100000 nM
GI50 (ACHN renal): 580 nM
TGI (ACHN renal): > 100000 nM
GI50 (BT-549 breast): 449 nM
TGI (BT-549 breast): > 100000 nM
GI50 (CAKI-1 renal): 141 nM
TGI (CAKI-1 renal): > 45900 nM
GI50 (CCRF-CEM leukemia): 411 nM
TGI (CCRF-CEM leukemia): > 100000 nM
GI50 (COLO 205 colon): 282 nM
TGI (COLO 205 colon): 1540 nM
GI50 (DU-145 prostate): 350 nM
TGI (DU-145 prostate): 14800 nM
GI50 (EKVX NSCLC): 602 nM
TGI (EKVX NSCLC): > 100000 nM
GI50 (HCC-2998 colon): 337 nM
TGI (HCC-2998 colon): 17500 nM
GI50 (HCT-116 colon): 320 nM
TGI (HCT-116 colon): > 100000 nM
GI50 (HCT-15 colon): 139 nM
TGI (HCT-15 colon): > 100000 nM
GI50 (HL-60(TB) leukemia): 340 nM
TGI (HL-60(TB) leukemia): > 100000 nM
GI50 (HOP-62 NSCLC): 615 nM
TGI (HOP-62 NSCLC): > 40900 nM
GI50 (HOP-92 NSCLC): 2970 nM
TGI (HOP-92 NSCLC): > 72200 nM
GI50 (HS 578T breast): 306 nM
TGI (HS 578T breast): > 66400 nM
GI50 (HT29 colon): 498 nM
TGI (HT29 colon): > 35200 nM
GI50 (IGROV1 ovarian): 400 nM
TGI (IGROV1 ovarian): > 100000 nM
GI50 (K-562 leukemia): 159 nM
TGI (K-562 leukemia): > 100000 nM
GI50 (KM12 colon): 196 nM
TGI (KM12 colon): > 100000 nM
GI50 (LOX IMVI melanoma): 565 nM
TGI (LOX IMVI melanoma): > 100000 nM
GI50 (M14 melanoma): 224 nM
TGI (M14 melanoma): > 48800 nM
GI50 (MALME-3M melanoma): 569 nM
TGI (MALME-3M melanoma): > 60900 nM
GI50 (MCF7 breast): 175 nM
TGI (MCF7 breast): > 100000 nM
GI50 (MDA-MB-231 breast): 445 nM
TGI (MDA-MB-231 breast): 29700 nM
GI50 (MDA-MB-435): 35.2 nM
TGI (MDA-MB-435): 172 nM
GI50 (MOLT-4 leukemia): 670 nM
TGI (MOLT-4 leukemia): > 100000 nM
GI50 (NCI-H226 lung): 827 nM
GI50 (NCI-H23 lung): 474 nM
TGI (NCI-H23 lung): > 57600 nM
GI50 (NCI-H460 lung): 349 nM
TGI (NCI-H460 lung): > 38200 nM
GI50 (NCI-H522 lung): 196 nM
GI50 (NCI/ADR-RES ovarian): 251 nM
TGI (NCI/ADR-RES ovarian): 6960 nM
GI50 (OVCAR-3 ovarian): 223 nM
TGI (OVCAR-3 ovarian): 629 nM
GI50 (OVCAR-4 ovarian): 608 nM
TGI (OVCAR-4 ovarian): > 100000 nM
GI50 (OVCAR-5 ovarian): 617 nM
TGI (OVCAR-5 ovarian): > 100000 nM
GI50 (OVCAR-8 ovarian): 485 nM
TGI (OVCAR-8 ovarian): > 100000 nM
GI50 (PC-3 prostate): 341 nM
TGI (PC-3 prostate): > 100000 nM
GI50 (RPMI-8226 leukemia): 483 nM
TGI (RPMI-8226 leukemia): > 100000 nM
GI50 (RXF 393 renal): 232 nM
TGI (RXF 393 renal): 783 nM
GI50 (SF-268 CNS): 1130 nM
TGI (SF-268 CNS): > 100000 nM
GI50 (SF-295 CNS): 244 nM
TGI (SF-295 CNS): 1840 nM
GI50 (SF-539 CNS): 251 nM
TGI (SF-539 CNS): 916 nM
GI50 (SK-MEL-2 melanoma): 943 nM
TGI (SK-MEL-2 melanoma): > 48600 nM
GI50 (SK-MEL-28 melanoma): 1540 nM
TGI (SK-MEL-28 melanoma): > 100000 nM
GI50 (SK-MEL-5 melanoma): 281 nM
TGI (SK-MEL-5 melanoma): 2360 nM
GI50 (SK-OV-3 ovarian): 746 nM
TGI (SK-OV-3 ovarian): 46600 nM
GI50 (SN12C renal): 592 nM
TGI (SN12C renal): > 100000 nM
GI50 (SNB-19 CNS): 506 nM
TGI (SNB-19 CNS): > 68400 nM
GI50 (SNB-75 CNS): 185 nM
TGI (SNB-75 CNS): 7170 nM
GI50 (SR leukemia): 210 nM
TGI (SR leukemia): > 100000 nM
GI50 (SW-620 colon): 352 nM
TGI (SW-620 colon): > 100000 nM
GI50 (T-47D breast): 606 nM
TGI (T-47D breast): > 100000 nM
GI50 (TK-10 renal): 892 nM
TGI (TK-10 renal): > 39200 nM
GI50 (U251 CNS): 385 nM
TGI (U251 CNS): > 48200 nM
GI50 (UACC-257 melanoma): 5870 nM
TGI (UACC-257 melanoma): > 100000 nM
GI50 (UACC-62 melanoma): 372 nM
TGI (UACC-62 melanoma): > 100000 nM
GI50 (UO-31 renal): 1090 nM
TGI (UO-31 renal): > 100000 nM
